Assays:
[1] = tested on: LPS-stimulated TNFα production in THP-1 cells; assay: LPS-stimulated TNFα production inhibition test using human acute monocytic leukemia cell strain THP-1; assay type: cell-based; details: LPS 2.5 ng/mL, average values
Summary of the method: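 THP-1 cells were preincubated with compound for 1 h at 37 °C, then stimulated with LPS (2.5 ng/mL final) for 4 h. Supernatant TNFα was quantified by HTRF (620/665 nm ratio) against a calibration curve. IC50 came from a 4-parameter logistic fit, with no-LPS set as 100% and no-compound as 0% suppression.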

[2] = target: human IRAK-4 (Homo sapiens (Human), UniProt Q9NWZ3); assay: Measurement of human IRAK-4 inhibitory activity (TR-FRET, peptide substrate phosphorylation, 10 μM ATP); assay type: biochemical; details: 1 nM IRAK-4, 10 μM ATP, 23° C., 30 minutes; average values
Summary of the method: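 With 1 nM IRAK-4, 0.5 μM biotinylated peptide and 10 μM ATP, compound incubated 30 min at 23 °C in 50 mM HEPES pH 7.2 with Mg2+/Mn2+. Stopped with EDTA plus europium-cryptate anti-phosphopeptide antibody and streptavidin-XL665, 60 min at 23 °C. Activity taken as the 665/620 nm TR-FRET ratio.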

human IRAK-4, sequence (Q9NWZ3 whole entry): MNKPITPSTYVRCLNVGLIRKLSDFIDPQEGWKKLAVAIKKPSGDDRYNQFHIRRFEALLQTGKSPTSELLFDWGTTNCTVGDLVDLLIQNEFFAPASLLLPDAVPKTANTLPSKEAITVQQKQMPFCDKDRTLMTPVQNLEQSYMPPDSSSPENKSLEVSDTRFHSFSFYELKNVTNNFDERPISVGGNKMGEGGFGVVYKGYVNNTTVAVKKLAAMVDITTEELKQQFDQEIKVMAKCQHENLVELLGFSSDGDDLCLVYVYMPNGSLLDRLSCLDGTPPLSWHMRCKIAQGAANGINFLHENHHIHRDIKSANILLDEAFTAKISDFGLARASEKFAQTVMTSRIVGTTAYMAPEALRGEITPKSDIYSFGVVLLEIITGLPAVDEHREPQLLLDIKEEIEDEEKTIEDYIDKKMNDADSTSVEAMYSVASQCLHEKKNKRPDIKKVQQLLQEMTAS

Compound	IC50 ([1]; Homo sapiens, THP-1, 4 h)	IC50 [2]	IC50 ([1]; Homo sapiens, 4 hours)	IC50 ([1]; 4 hours)
C[C@H]1CN(C(=O)N2CCC2)CCN1[C@H]1C[C@@H](C(=O)Nc2nc3ccc(-c4cnc(CO[C@H]5CCC[C@@H]5O)nc4)cc3s2)C1 [b-05-09]	44 nM	2.13 nM	–	–
O=C(Nc1nc2ccc(-c3cnc(CO[C@H]4CCC[C@@H]4O)nc3)cc2s1)C1CC(N2CCC(F)(F)C2)C1 (stereo partly drawn) [b-02-13]	175 nM	3.77 nM	–	–
CC(C)C(=O)N1CCN([C@H]2C[C@@H](C(=O)Nc3cc4cc(-c5cnc(CO[C@H]6CCC[C@@H]6O)nc5)ccn4n3)C2)[C@@H](C)C1 [e-02-07]	152 nM	1.33 nM	–	–
O=C(Nc1nc2ccc(-c3cnc(CO[C@H]4CC(F)(F)C[C@@H]4O)nc3)cc2s1)C1CC1 [a-03-01, N-(6-(2-((((1 S,2S)-4,4-Difluoro-2-hydroxycyclopentyl)oxy)methyl)pyrimidin-5-yl)benzo[d]thiazol-2-yl)cyclopropanecarboxamide]	57 nM	1.41 nM	–	–
O=C(Nc1nc2ccc(-c3cnc(CO[C@H]4CCC[C@@H]4O)nc3)cc2s1)C1CC2(CCN(CC(F)(F)F)CC2)C1 [d-03-08]	137 nM	1.28 nM	–	–
O=C(Nc1nc2ccc(-c3cnc(CO[C@H]4CCC[C@@H]4O)nc3)cc2s1)C1CC(NCC(F)F)C1 (stereo partly drawn) [b-02-52]	–	2.6 nM	176 nM	–
O=C(Nc1nc2ccc(-c3cnc(CO[C@H]4CCC[C@@H]4O)nc3)c(F)c2s1)C1CC1 [a-01-12]	361 nM	7.75 nM	–	–
O=C(Nc1nc2ccc(-c3cnc(CO[C@H]4CCC[C@@H]4O)nc3)cc2s1)C1CC(N2CCOCC(F)(F)C2)C1 (stereo partly drawn) [b-02-35]	140 nM	2.52 nM	–	–
O=C(Nc1nc2ccc(-c3cnc(CO[C@H]4CCC[C@@H]4O)nc3)cc2s1)C1CC1 [a-01-01, N-(6-(2-((((1S,2S)-2-Hydroxycyclopentyl)oxy)methyl)pyrimidin-5-yl)benzo[d]thiazol-2-yl)cyclopropanecarboxamide]	121 nM	1.89 nM	–	–
O=C(Nc1nc2ccc(-c3cnc(CO[C@H]4CCC[C@@H]4O)nc3)cc2s1)C1CC(N2CCOC3(CCCC3)C2)C1 (stereo partly drawn) [b-02-81]	202 nM	3.64 nM	–	–
COCCOCC(=O)N1CCN([C@H]2C[C@@H](C(=O)Nc3nc4ccc(-c5cnc(CO[C@H]6CCC[C@@H]6O)nc5)c(OC)c4s3)C2)[C@@H](C)C1 [c-03-04]	320 nM	2.69 nM	–	–
CCCOCc1ncc(-c2ccn3nc(NC(=O)[C@H]4C[C@@H](N5CCN(C(=O)c6ccc(C(F)(F)F)cn6)C[C@@H]5C)C4)cc3c2)cn1 [e-02-16]	175 nM	1.85 nM	–	–
CC1CC(F)(F)CN1C1CC(C(=O)Nc2nc3ccc(-c4cnc(CO[C@H]5CCC[C@@H]5O)nc4)cc3s2)C1 (stereo partly drawn) [b-02-46]	171 nM	3.55 nM	–	–
C[C@H]1CN(C(=O)C2CCC2)CCN1[C@H]1C[C@@H](C(=O)Nc2nc3ccc(-c4cnc(CO[C@H]5CCC[C@@H]5O)nc4)cc3s2)C1 [b-05-07]	44 nM	2.51 nM	–	–
C[C@@H]1CCCCN1C1CC(C(=O)Nc2nc3ccc(-c4cnc(CO[C@H]5CCC[C@@H]5O)nc4)cc3s2)C1 (stereo partly drawn) [b-02-84]	101 nM	1.04 nM	–	–
C[C@H]1CN(C(=O)c2ccon2)CCN1[C@H]1C[C@@H](C(=O)Nc2nc3ccc(-c4cnc(CO[C@H]5CCC[C@@H]5O)nc4)cc3s2)C1 [b-04-39]	44 nM	0.66 nM	–	–
C[C@H]1CN(C(=O)c2cccnc2C(F)(F)F)CCN1[C@H]1C[C@@H](C(=O)Nc2nc3ccc(-c4cnc(CO[C@H]5CCC[C@@H]5O)nc4)cc3s2)C1 [b-04-30]	62 nM	1.49 nM	–	–
N#CC1(NC2CC(C(=O)Nc3nc4ccc(-c5cnc(CO[C@H]6CCC[C@@H]6O)nc5)cc4s3)C2)CC1 (stereo partly drawn) [b-02-59]	105 nM	1.51 nM	–	–
O=C(Nc1nc2ccc(-c3cnc(CO[C@H]4CCC[C@@H]4O)nc3)cc2s1)C1CC(N2CCCOCC2)C1 (stereo partly drawn) [b-02-03]	166 nM	2.53 nM	–	–
CN(C1CC(C(=O)Nc2nc3ccc(-c4cnc(CO[C@H]5CCC[C@@H]5O)nc4)cc3s2)C1)C1(C(F)F)CC1 (stereo partly drawn) [b-03-05]	108 nM	2.93 nM	–	–
CCCOCc1ncc(-c2ccn3nc(NC(=O)[C@H]4C[C@@H](N5CCN(C(=O)c6ccc(Cl)cn6)C[C@@H]5C)C4)cc3c2)cn1 [e-02-22]	106 nM	1.29 nM	–	–

Compound	IC50 ([1]; Homo sapiens, THP-1, 4 h)	IC50 [2]	IC50 ([1]; Homo sapiens, 4 hours)	IC50 ([1]; 4 hours)
O=C(Nc1nc2ccc(-c3cnc(CO[C@H]4CCC[C@@H]4O)nc3)cc2s1)C1CC(NC2C3CC2C3)C1 (stereo partly drawn) [b-02-76]	99 nM	1.55 nM	–	–
C[C@H]1CN(C(=O)C2CCOCC2)CCN1[C@H]1C[C@@H](C(=O)Nc2nc3ccc(-c4cnc(CO[C@H]5CCC[C@@H]5O)nc4)cc3s2)C1 [b-04-09]	55 nM	2.58 nM	–	–
O=C(Nc1nc2ccc(-c3cnc(CO[C@H]4CCC[C@@H]4O)nc3)c(OC[C@H]3CCOC3)c2s1)C1CC1 [c-06-03]	277 nM	17.1 nM	–	–
C[C@H]1CN(C(=O)c2ccc(C(F)(F)F)nc2)CCN1[C@H]1C[C@@H](C(=O)Nc2cc3cc(-c4cnc(CO[C@H]5CCC[C@@H]5O)nc4)ccn3n2)C1 [e-02-03]	67 nM	2.23 nM	–	–
O=C(Nc1nc2ccc(-c3cnc(CO[C@H]4CCC[C@@H]4O)nc3)cc2s1)C1CC(N2CC[C@H](OC(F)F)C2)C1 (stereo partly drawn) [b-02-51]	146 nM	2.17 nM	–	–
C[C@H]1CN(C(=O)[C@@H]2CCOC2)CCN1[C@H]1C[C@@H](C(=O)Nc2nc3ccc(-c4cnc(CO[C@H]5CCC[C@@H]5O)nc4)cc3s2)C1 [b-04-22]	50 nM	1.3 nM	–	–
CCCOCc1ncc(-c2ccc3nc(NC(=O)[C@H]4C[C@@H](N5CCN(C(=O)c6cc(F)ccn6)C[C@@H]5C)C4)sc3c2)cn1 [b-04-41]	76 nM	0.69 nM	–	–
CCCO[C@H]1C[C@@H](C(=O)Nc2nc3ccc(-c4cnc(CO[C@H]5CCC[C@@H]5O)nc4)cc3s2)C1 [d-04-03]	162 nM	2.22 nM	–	–
O=C(Nc1nc2ccc(-c3cnc(CO[C@H]4CCC[C@@H]4O)nc3)cc2s1)C1CC(NCc2nccs2)C1 (stereo partly drawn) [b-02-86]	132 nM	0.803 nM	–	–
C[C@H]1CN(C(=O)c2cccnc2)CCN1[C@H]1C[C@@H](C(=O)Nc2cc3cc(-c4cnc(CO[C@H]5CCC[C@@H]5O)nc4)ccn3n2)C1 [e-02-12]	–	1.9 nM	–	129 nM
COc1c(-c2cnc(CO[C@H]3CCC[C@@H]3O)nc2)ccc2nc(NC(=O)[C@@H]3C[C@@H]3F)sc12 [c-02-08]	196 nM	2.44 nM	–	–
O=C(Nc1nc2ccc(-c3cnc(CO[C@H]4CCC[C@@H]4O)nc3)cc2s1)C1CC(N2CCC[C@H](F)C2)C1 (stereo partly drawn) [b-02-17]	120 nM	1.59 nM	–	–
COCC(=O)N1CCN([C@H]2C[C@@H](C(=O)Nc3nc4ccc(-c5cnc(CO[C@H]6CCC[C@@H]6O)nc5)cc4s3)C2)[C@@H](C)C1 [b-05-03]	50 nM	1.81 nM	–	–
O=C(Nc1nc2ccc(-c3cnc(CO[C@H]4CCC[C@@H]4O)nc3)cc2s1)C1CC(N2CC[C@@H](OC(F)F)C2)C1 (stereo partly drawn) [b-02-62]	141 nM	1.38 nM	–	–
O=C(Nc1nc2ccc(-c3cnc(COC4CCCC4)nc3)cc2s1)C1CC1 [a-04-01, N-(6-(2-(Cyclopentoxymethyl)pyrimidin-5-yl)-1,3-benzo[d]thiazol-2-yl)cyclopropanecarboxamide]	261 nM	1.38 nM	–	–
Cc1cc(C(=O)N2CCN([C@H]3C[C@@H](C(=O)Nc4cc5cc(-c6cnc(CO[C@H]7CCC[C@@H]7O)nc6)ccn5n4)C3)[C@@H](C)C2)cc(C)n1 [e-02-27]	54 nM	1.38 nM	–	–
O=C(Nc1nc2ccc(-c3cnc(CO[C@H]4CCC[C@@H]4O)nc3)cc2s1)C1CC(N2CCC(F)CC2)C1 (stereo partly drawn) [b-02-11]	152 nM	2.87 nM	–	–
COC[C@@H]1CCN(C2CC(C(=O)Nc3nc4ccc(-c5cnc(CO[C@H]6CCC[C@@H]6O)nc5)cc4s3)C2)C1 (stereo partly drawn) [b-02-39]	182 nM	1.9 nM	–	–
O=C(Nc1nc2ccc(-c3cnc(CO[C@H]4CCC[C@@H]4O)nc3)cc2s1)C1CC(N2CCOCC2CC2CC2)C1 (stereo partly drawn) [b-02-71]	105 nM	2.36 nM	–	–
CCOCC(=O)N1CCN([C@H]2C[C@@H](C(=O)Nc3nc4ccc(-c5cnc(CO[C@H]6CCC[C@@H]6O)nc5)cc4s3)C2)[C@@H](C)C1 [b-04-08]	53 nM	2.48 nM	–	–
O=C(Nc1nc2ccc(-c3cnc(CO[C@H]4CCC[C@@H]4O)nc3)cc2s1)C1CC2(COC2)C1 [d-01-07]	184 nM	1.75 nM	–	–

Reference: patent publication US20240025893A1, “PYRIMIDINE-AND NITROGEN-CONTAINING BICYCLIC COMPOUND” (Asahi Kasei Pharma Corporation, priority 2020, published 2024)
